Patent US10464941B2, “Therapeutic compounds” (REGENTS OF THE UNIVERSITY OF MINNESOTA, priority 2015, dated 2019)

Columns and labels:
[1] = tested on: IL-6; test: Proinflammatory cytokine IL-6 ELISA in LPS-stimulated microglia (BV2); assay type: cell-based, murine
Experimental: Murine primary microglia cell line (BV2) were cultured in DMEM with 10% heat-inactivated fetal bovine serum (FBS), 100 U/ml penicillin, 100 μg/ml streptomycin, 10 μg/ml gentamycin (all from Invitrogen, CA, USA). Cells were harvested on reaching 80% to 90% confluence by treating with 0.25% trypsin containing 1 mM EDTA for 5 minutes at 37° C. Cells (20,000/200 μl) were seeded on flat bottom 96 well plates and treated for 3 hrs with equimolar concentration (200 nM) of MCC22/Minocycline for 3 hrs followed by overnight treatment with LPS (1 μg/ml). At the end of the experiment, IL-6 was estimated by Sandwich ELISA using mouse IL-6 DuoSet kit (R&D Systems, Minneapolis, Minn.) in the culture supernatant.

[2] = tested on: WDR neuron; test: Extracellular recordings from dorsal horn neurons, von Frey stimulation; assay type: in vivo, mice; conditions: hind paw, 5 sec, compared with control and vehicle
Experimental: Mice were anesthetized with isoflurane while maintaining core temperature at 37° C. A laminectomy exposed the lumbar spinal cord then mice were secured in a spinal frame. Extracellular recordings from dorsal horn neurons with receptive fields located on the plantar surface of the hind paw were obtained using glass microelectrodes lowered into the spinal cord.
Receptive fields (RFs) of dorsal horn neurons were identified by stroking the skin and applying mild pressure. Neurons were classified functionally as low threshold (LT), wide dynamic range (WDR) and high threshold (HT) using mechanical stimulation of graded intensities. RF areas were mapped using von Frey filaments. The discharge rate of spontaneous activity was recorded for 3 minutes. Mechanical response thresholds were determined and an increasing series of von Frey filaments were applied, each for 5 sec. Action potentials and the time of stimulus application were stored on a computer. Comparisons of discharge rates were made between vehicle and MCC22.

Structure (SMILES): Cc1ccc(N(CCCN2CCC(Cc3ccc(C(N)=O)cc3)CC2)C(=O)C2CCN(C(=O)COCC(=O)NCCCCCCCCCCNC(=O)COCC(=O)N[C@H]3CC[C@@]4(O)C5Cc6ccc(O)c7c6[C@@]4(CCN5C)[C@H]3O7)CC2)cc1Cl [Compound 3e, N-(3-(4-(4-carbamoylbenzyl)piperidin-1-yl)propyl)-N-(3-chloro-4-methylphenyl)-1-(22-(((4aS,7S,7aR,12bS)-4a,9-dihydroxy-3-methyl-2,3,4,4a,5,6,7,7a-octahydro-1H-4,12-methanobenzofuro[3,2-e]isoquinolin-7-yl)amino)-5,18,22-trioxo-3,20-dioxa-6,17-diazadocosan-1-oyl)piperidine-4-carboxamide]
- attenuation of IL-6 secretion ([1]; 200 nM, 3 hrs pretreatment, LPS 1 μg/ml overnight, microglial supernatant): ~30%
- IL-6 secretion when combined with minocycline ([1]; MCC22 combined with minocycline, LPS): further attenuated
- responses of WDR neuron evoked by 1.0 g (9.3 mN) von Frey filament [2]: significantly reduced responses
